Literature values, collected in patent US8142802B2, “Insecticidal composition with enhanced synergistic activity” (priority 2003, dated 2012).

Conditions: at room temperature

## COP(=O)(NC(C)=O)SC (stereo not shown) [Acephate]
  solubility in acetone: > 100 mg/mL
  solubility in aromatic solvents: < 50 mg/mL
  solubility in ethanol: > 100 mg/mL
  solubility in water: about 650 g/l
